Results: PubChem BioAssay (NCI)
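48-hour exposure; five concentrations; linearly interpolated endpoints. Definition used: TGI = concentration required for complete inhibition of growth.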

Experiments:
Assay in all cases: DTP human tumour cell line panel, 48 h
HOP-92 NSCLC = system: HOP-92 NSCLC
RXF 393 renal = system: RXF 393 renal
MALME-3M melanoma = system: MALME-3M melanoma
SF-268 CNS = system: SF-268 CNS
DU-145 prostate = system: DU-145 prostate
MDA-N = system: MDA-N
OVCAR-3 ovarian = system: OVCAR-3 ovarian
CAKI-1 renal = system: CAKI-1 renal
SK-MEL-5 melanoma = system: SK-MEL-5 melanoma
LOX IMVI melanoma = system: LOX IMVI melanoma
HCT-15 colon = system: HCT-15 colon
U251 CNS = system: U251 CNS
EKVX NSCLC = system: EKVX NSCLC
SF-295 CNS = system: SF-295 CNS
NCI-H226 lung = system: NCI-H226 lung
SK-MEL-2 melanoma = system: SK-MEL-2 melanoma
RPMI-8226 leukemia = system: RPMI-8226 leukemia
OVCAR-4 ovarian = system: OVCAR-4 ovarian
SNB-19 CNS = system: SNB-19 CNS
HCT-116 colon = system: HCT-116 colon
SR leukemia = system: SR leukemia
IGROV1 ovarian = system: IGROV1 ovarian
MOLT-4 leukemia = system: MOLT-4 leukemia
KM12 colon = system: KM12 colon
MDA-MB-231 breast = system: MDA-MB-231 breast
SW-620 colon = system: SW-620 colon
T-47D breast = system: T-47D breast
COLO 205 colon = system: COLO 205 colon
SNB-75 CNS = system: SNB-75 CNS
A498 renal = system: A498 renal
OVCAR-8 ovarian = system: OVCAR-8 ovarian
SK-MEL-28 melanoma = system: SK-MEL-28 melanoma
OVCAR-5 ovarian = system: OVCAR-5 ovarian
CCRF-CEM leukemia = system: CCRF-CEM leukemia
HS 578T breast = system: HS 578T breast
SN12C renal = system: SN12C renal
NCI/ADR-RES ovarian = system: NCI/ADR-RES ovarian
HCC-2998 colon = system: HCC-2998 colon
ACHN renal = system: ACHN renal
HL-60(TB) leukemia = system: HL-60(TB) leukemia
BT-549 breast = system: BT-549 breast
TK-10 renal = system: TK-10 renal
NCI-H460 lung = system: NCI-H460 lung
MCF7 breast = system: MCF7 breast
SF-539 CNS = system: SF-539 CNS
UO-31 renal = system: UO-31 renal
UACC-257 melanoma = system: UACC-257 melanoma
M14 melanoma = system: M14 melanoma
MDA-MB-435 = system: MDA-MB-435
A549 NSCLC = system: A549 NSCLC
PC-3 prostate = system: PC-3 prostate
786-0 renal = system: 786-0 renal
UACC-62 melanoma = system: UACC-62 melanoma
NCI-H522 lung = system: NCI-H522 lung
K-562 leukemia = system: K-562 leukemia
NCI-H23 lung = system: NCI-H23 lung
HOP-62 NSCLC = system: HOP-62 NSCLC
HT29 colon = system: HT29 colon
SK-OV-3 ovarian = system: SK-OV-3 ovarian

With `N#Cc1c(N)c2c(c(-c3ccccc3)c1-c1ccccc1)C(=O)N(NC(=O)c1ccccc1)C2=O` the TGI (HOP-92 NSCLC) was over 100 µM, the TGI (RXF 393 renal) was over 100 µM and the TGI (MALME-3M melanoma) was over 100 µM. The TGI (SF-268 CNS) was over 100 µM, the TGI (DU-145 prostate) was over 100 µM and the TGI (MDA-N) was over 100 µM. The TGI (OVCAR-3 ovarian) was over 100 µM, the TGI (CAKI-1 renal) was over 100 µM and the TGI (SK-MEL-5 melanoma) was over 100 µM. It also gave a TGI (LOX IMVI melanoma) of over 100 µM, a TGI (HCT-15 colon) of over 100 µM and a TGI (U251 CNS) of over 100 µM. For the same molecule, the TGI (EKVX NSCLC) was over 100 µM, the TGI (SF-295 CNS) was over 100 µM and the TGI (NCI-H226 lung) was over 100 µM. For the same molecule, the TGI (SK-MEL-2 melanoma) was over 100 µM, the TGI (RPMI-8226 leukemia) was over 100 µM and the TGI (OVCAR-4 ovarian) was over 100 µM. For the same molecule, the TGI (SNB-19 CNS) was over 100 µM, the TGI (HCT-116 colon) was over 100 µM and the TGI (SR leukemia) was over 100 µM. For the same molecule, the TGI (IGROV1 ovarian) was over 100 µM, the TGI (MOLT-4 leukemia) was over 100 µM and the TGI (KM12 colon) was over 100 µM. For the same molecule, the TGI (MDA-MB-231 breast) was over 100 µM, the TGI (SW-620 colon) was over 100 µM and the TGI (T-47D breast) was over 100 µM. It also gave a TGI (COLO 205 colon) of over 100 µM, a TGI (SNB-75 CNS) of over 100 µM and a TGI (A498 renal) of over 100 µM. The TGI (OVCAR-8 ovarian) was over 100 µM, the TGI (SK-MEL-28 melanoma) was over 100 µM and the TGI (OVCAR-5 ovarian) was over 100 µM. The TGI (CCRF-CEM leukemia) was over 100 µM, the TGI (HS 578T breast) was over 100 µM and the TGI (SN12C renal) was over 100 µM. It also gave a TGI (NCI/ADR-RES ovarian) of over 100 µM, a TGI (HCC-2998 colon) of over 100 µM and a TGI (ACHN renal) of over 100 µM. The TGI (HL-60(TB) leukemia) was over 100 µM, the TGI (BT-549 breast) was over 100 µM and the TGI (TK-10 renal) was over 100 µM. The TGI (NCI-H460 lung) was over 100 µM, the TGI (MCF7 breast) was over 100 µM and the TGI (SF-539 CNS) was over 100 µM. The TGI (UO-31 renal) was over 100 µM, the TGI (UACC-257 melanoma) was over 100 µM and the TGI (M14 melanoma) was over 100 µM. It also gave a TGI (MDA-MB-435) of over 100 µM, a TGI (A549 NSCLC) of over 100 µM and a TGI (PC-3 prostate) of over 100 µM. For the same molecule, the TGI (786-0 renal) was over 100 µM, the TGI (UACC-62 melanoma) was over 100 µM and the TGI (NCI-H522 lung) was over 100 µM. The TGI (K-562 leukemia) was over 100 µM.

For `CCN1C(=O)c2ccccc2C1(O)c1ccc(Cl)cc1` (stereo not given), the TGI (HOP-92 NSCLC) was over 100 µM, the TGI (SF-268 CNS) was over 100 µM and the TGI (DU-145 prostate) was over 100 µM. It also gave a TGI (NCI-H23 lung) of over 100 µM, a TGI (MDA-N) of over 100 µM and a TGI (OVCAR-3 ovarian) of over 100 µM. For the same molecule, the TGI (CAKI-1 renal) was over 100 µM, the TGI (SK-MEL-5 melanoma) was over 100 µM and the TGI (LOX IMVI melanoma) was over 100 µM. The TGI (HCT-15 colon) was over 100 µM, the TGI (U251 CNS) was over 100 µM and the TGI (EKVX NSCLC) was over 100 µM. The TGI (SF-295 CNS) was 63.2 µM, the TGI (NCI-H226 lung) was 74.3 µM and the TGI (SK-MEL-2 melanoma) was 83.6 µM. It also gave a TGI (RPMI-8226 leukemia) of over 100 µM, a TGI (OVCAR-4 ovarian) of over 100 µM and a TGI (SNB-19 CNS) of over 100 µM. It also gave a TGI (HCT-116 colon) of over 100 µM, a TGI (SR leukemia) of over 100 µM and a TGI (IGROV1 ovarian) of over 100 µM. It also gave a TGI (MOLT-4 leukemia) of over 100 µM, a TGI (KM12 colon) of over 100 µM and a TGI (MDA-MB-231 breast) of over 100 µM. It also gave a TGI (SW-620 colon) of over 100 µM, a TGI (T-47D breast) of over 100 µM and a TGI (COLO 205 colon) of over 100 µM. The TGI (A498 renal) was over 100 µM, the TGI (OVCAR-8 ovarian) was over 100 µM and the TGI (SK-MEL-28 melanoma) was over 100 µM. For the same molecule, the TGI (OVCAR-5 ovarian) was over 100 µM, the TGI (CCRF-CEM leukemia) was over 100 µM and the TGI (HS 578T breast) was over 100 µM. The TGI (SN12C renal) was over 100 µM, the TGI (NCI/ADR-RES ovarian) was over 100 µM and the TGI (HOP-62 NSCLC) was over 100 µM. It also gave a TGI (HCC-2998 colon) of over 100 µM, a TGI (ACHN renal) of over 100 µM and a TGI (HL-60(TB) leukemia) of over 100 µM. For the same molecule, the TGI (HT29 colon) was over 100 µM, the TGI (BT-549 breast) was over 100 µM and the TGI (TK-10 renal) was over 100 µM. The TGI (NCI-H460 lung) was over 100 µM, the TGI (MCF7 breast) was over 100 µM and the TGI (SF-539 CNS) was over 100 µM. It also gave a TGI (UO-31 renal) of over 100 µM, a TGI (UACC-257 melanoma) of over 100 µM and a TGI (M14 melanoma) of over 100 µM. For the same molecule, the TGI (MDA-MB-435) was over 100 µM, the TGI (A549 NSCLC) was over 100 µM and the TGI (PC-3 prostate) was 80.6 µM. It also gave a TGI (786-0 renal) of over 100 µM, a TGI (UACC-62 melanoma) of over 100 µM and a TGI (K-562 leukemia) of over 100 µM. The TGI (SK-OV-3 ovarian) was over 100 µM.
